Earlier results, collected in patent US5292505A, “Sulphated vinyl polymer in composition for treating retroviral infections” (Stichting Rega VZW, priority 1989, dated 1994).

Legend:
[1] = system: Molt-4 cells co-cultured with HIV-1-infected HUT-78 cells; conditions: statement without own test
AIDS = AIDS patients, Fischl et al

Cc1cn([C@H]2C[C@H](N=[N+]=[N-])[C@@H](CO)O2)c(=O)[nH]c1=O [azidothymidine, 3'-azido-2',3'-dideoxythymidine]
inhibition of giant cell formation [1]: does not show such effect
clinical effectiveness (AIDS): clinically effective
